This note sets out measurements from ChEMBL document CHEMBL5465560, “Selectivity Literature for EUbOPEN Chemogenomic Library” (2024).

For experiment [1], the target named is T1, NUAK family SNF1-like kinase 1 (Homo sapiens) (UniProt O60285).
T1 sequence (whole entry): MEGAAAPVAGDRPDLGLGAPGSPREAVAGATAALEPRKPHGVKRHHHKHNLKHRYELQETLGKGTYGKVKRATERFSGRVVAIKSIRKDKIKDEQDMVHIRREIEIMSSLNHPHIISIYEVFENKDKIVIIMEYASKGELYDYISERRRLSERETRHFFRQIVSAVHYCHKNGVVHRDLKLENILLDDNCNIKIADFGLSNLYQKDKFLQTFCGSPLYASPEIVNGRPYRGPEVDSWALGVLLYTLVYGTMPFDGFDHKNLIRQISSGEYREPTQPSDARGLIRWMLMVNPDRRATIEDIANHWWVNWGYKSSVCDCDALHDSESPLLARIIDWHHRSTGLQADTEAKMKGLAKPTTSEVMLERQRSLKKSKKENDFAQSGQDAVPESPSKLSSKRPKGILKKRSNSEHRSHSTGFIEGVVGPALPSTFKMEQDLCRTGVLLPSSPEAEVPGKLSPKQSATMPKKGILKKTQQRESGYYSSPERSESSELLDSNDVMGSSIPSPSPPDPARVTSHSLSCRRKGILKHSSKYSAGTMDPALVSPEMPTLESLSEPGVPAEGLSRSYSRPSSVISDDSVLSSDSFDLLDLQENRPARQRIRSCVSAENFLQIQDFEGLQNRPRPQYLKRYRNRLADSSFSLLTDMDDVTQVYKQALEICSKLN
The following applies: at 10 µM.

The target in experiment [2] is T2, Cytoplasmic tyrosine-protein kinase BMX (Homo sapiens) (UniProt P51813).
T2 sequence (whole entry): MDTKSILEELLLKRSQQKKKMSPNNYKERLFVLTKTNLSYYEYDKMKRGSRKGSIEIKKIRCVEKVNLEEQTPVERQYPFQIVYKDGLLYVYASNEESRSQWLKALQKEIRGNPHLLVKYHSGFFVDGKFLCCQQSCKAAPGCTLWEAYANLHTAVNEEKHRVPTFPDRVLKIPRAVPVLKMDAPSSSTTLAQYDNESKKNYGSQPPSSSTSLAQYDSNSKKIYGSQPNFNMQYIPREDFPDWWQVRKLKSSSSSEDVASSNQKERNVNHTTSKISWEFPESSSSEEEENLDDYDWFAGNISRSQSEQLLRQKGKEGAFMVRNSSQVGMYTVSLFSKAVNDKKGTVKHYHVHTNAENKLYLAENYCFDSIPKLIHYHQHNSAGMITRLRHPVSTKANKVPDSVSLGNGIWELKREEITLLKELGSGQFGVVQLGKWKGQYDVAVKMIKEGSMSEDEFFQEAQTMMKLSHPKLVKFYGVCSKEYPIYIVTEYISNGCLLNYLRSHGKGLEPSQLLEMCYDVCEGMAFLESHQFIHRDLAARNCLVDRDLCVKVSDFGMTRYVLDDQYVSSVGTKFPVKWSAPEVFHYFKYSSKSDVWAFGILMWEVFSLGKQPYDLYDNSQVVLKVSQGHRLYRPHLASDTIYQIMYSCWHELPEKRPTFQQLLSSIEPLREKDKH
The conditions noted are these: at 10 µM.

For experiment [3], the target named is Ribosomal protein S6 kinase alpha-6 (Homo sapiens, UniProt Q9UK32). As to the kind of experiment: Selectivity interaction (KinomeScan (DiscoverX)) EUB0001079a RPS6KA6. The following applies: at 1 µM.
Experiment [4] concerns the target T3, Cyclin-G-associated kinase (Homo sapiens) (UniProt O14976).
T3 sequence (whole entry): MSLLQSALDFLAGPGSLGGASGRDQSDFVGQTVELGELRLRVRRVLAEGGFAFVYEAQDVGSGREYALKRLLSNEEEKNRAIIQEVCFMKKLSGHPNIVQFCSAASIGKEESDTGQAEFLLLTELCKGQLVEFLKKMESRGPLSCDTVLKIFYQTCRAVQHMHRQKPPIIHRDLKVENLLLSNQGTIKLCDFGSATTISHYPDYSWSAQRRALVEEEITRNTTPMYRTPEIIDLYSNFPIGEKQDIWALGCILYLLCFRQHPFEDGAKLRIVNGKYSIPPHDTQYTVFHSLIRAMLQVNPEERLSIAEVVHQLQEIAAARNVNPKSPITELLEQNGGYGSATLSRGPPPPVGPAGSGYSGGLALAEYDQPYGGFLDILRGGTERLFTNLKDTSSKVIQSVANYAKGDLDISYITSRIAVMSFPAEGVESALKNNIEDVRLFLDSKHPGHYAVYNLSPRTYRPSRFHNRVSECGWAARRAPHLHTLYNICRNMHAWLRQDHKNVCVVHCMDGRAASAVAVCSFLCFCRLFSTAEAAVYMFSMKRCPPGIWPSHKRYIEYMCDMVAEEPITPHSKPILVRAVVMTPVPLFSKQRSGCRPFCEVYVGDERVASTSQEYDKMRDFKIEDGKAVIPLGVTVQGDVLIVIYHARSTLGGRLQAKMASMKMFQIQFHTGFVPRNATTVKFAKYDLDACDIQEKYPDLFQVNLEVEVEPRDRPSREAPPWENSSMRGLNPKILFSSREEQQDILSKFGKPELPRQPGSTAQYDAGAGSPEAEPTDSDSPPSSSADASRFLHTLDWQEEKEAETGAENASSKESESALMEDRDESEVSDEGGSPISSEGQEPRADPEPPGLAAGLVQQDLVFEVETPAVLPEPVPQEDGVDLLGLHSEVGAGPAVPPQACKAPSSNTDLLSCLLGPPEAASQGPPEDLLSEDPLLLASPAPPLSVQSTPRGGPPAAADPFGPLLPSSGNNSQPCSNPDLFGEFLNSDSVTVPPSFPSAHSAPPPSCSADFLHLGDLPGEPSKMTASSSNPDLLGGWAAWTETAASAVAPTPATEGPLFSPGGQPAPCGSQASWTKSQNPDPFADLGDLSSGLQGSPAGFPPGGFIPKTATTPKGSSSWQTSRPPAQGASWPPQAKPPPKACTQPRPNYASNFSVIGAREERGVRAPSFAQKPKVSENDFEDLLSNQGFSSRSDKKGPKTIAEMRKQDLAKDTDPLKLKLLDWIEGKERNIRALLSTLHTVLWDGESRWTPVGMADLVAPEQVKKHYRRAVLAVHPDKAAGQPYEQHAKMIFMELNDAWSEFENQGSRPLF
As to the kind of experiment: Selectivity interaction (KinomeScan (DiscoverX)) EUB0000092b GAK. The conditions noted are these: at 10 µM.

In experiment [5] the target is Angiopoietin-1 receptor (Homo sapiens) (UniProt Q02763). In words: Selectivity interaction (KinomeScan (DiscoverX)) EUB0000092b TEK. The conditions noted are these: at 10 µM.
Experiment [6] addresses BDNF/NT-3 growth factors receptor (Homo sapiens) (UniProt Q16620). In words: Selectivity interaction (KinomeScan (DiscoverX)) EUB0000595a NTRK2. The following applies: at 10 µM.
Experiment [7] deals with Serine/threonine-protein kinase 24 (Homo sapiens) (UniProt Q9Y6E0). In words: Selectivity interaction (ActivX KiNativ screen (ex vivo kinase selectivity in human PBMCs)) EUB0001619a STK24. The format is cell-based. The following applies: PBMC, at 1 µM.

The structures appear in SMILES notation.

Sequence of BDNF/NT-3 growth factors receptor (Homo sapiens) (Q16620 32-822 limits assumed): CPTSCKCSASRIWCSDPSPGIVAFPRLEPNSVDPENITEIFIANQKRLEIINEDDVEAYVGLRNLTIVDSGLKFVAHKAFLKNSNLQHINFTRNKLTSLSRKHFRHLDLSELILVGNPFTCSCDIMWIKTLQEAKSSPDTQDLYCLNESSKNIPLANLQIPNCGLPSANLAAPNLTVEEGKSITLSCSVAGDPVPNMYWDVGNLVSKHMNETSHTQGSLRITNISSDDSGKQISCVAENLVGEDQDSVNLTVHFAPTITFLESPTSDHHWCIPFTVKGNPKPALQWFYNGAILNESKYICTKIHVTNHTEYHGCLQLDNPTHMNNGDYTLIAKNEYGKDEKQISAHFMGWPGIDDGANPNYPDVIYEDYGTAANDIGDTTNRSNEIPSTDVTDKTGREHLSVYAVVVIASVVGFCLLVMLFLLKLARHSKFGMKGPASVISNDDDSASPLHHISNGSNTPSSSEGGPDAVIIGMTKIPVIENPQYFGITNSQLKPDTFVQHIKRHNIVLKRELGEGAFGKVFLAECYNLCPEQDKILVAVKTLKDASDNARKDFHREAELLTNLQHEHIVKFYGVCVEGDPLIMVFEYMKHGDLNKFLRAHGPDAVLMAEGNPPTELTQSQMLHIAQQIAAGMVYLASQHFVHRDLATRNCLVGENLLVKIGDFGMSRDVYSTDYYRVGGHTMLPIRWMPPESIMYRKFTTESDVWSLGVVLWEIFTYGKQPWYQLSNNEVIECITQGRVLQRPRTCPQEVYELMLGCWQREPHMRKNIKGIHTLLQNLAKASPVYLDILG
Sequence of Angiopoietin-1 receptor (Homo sapiens) (Q02763 whole entry): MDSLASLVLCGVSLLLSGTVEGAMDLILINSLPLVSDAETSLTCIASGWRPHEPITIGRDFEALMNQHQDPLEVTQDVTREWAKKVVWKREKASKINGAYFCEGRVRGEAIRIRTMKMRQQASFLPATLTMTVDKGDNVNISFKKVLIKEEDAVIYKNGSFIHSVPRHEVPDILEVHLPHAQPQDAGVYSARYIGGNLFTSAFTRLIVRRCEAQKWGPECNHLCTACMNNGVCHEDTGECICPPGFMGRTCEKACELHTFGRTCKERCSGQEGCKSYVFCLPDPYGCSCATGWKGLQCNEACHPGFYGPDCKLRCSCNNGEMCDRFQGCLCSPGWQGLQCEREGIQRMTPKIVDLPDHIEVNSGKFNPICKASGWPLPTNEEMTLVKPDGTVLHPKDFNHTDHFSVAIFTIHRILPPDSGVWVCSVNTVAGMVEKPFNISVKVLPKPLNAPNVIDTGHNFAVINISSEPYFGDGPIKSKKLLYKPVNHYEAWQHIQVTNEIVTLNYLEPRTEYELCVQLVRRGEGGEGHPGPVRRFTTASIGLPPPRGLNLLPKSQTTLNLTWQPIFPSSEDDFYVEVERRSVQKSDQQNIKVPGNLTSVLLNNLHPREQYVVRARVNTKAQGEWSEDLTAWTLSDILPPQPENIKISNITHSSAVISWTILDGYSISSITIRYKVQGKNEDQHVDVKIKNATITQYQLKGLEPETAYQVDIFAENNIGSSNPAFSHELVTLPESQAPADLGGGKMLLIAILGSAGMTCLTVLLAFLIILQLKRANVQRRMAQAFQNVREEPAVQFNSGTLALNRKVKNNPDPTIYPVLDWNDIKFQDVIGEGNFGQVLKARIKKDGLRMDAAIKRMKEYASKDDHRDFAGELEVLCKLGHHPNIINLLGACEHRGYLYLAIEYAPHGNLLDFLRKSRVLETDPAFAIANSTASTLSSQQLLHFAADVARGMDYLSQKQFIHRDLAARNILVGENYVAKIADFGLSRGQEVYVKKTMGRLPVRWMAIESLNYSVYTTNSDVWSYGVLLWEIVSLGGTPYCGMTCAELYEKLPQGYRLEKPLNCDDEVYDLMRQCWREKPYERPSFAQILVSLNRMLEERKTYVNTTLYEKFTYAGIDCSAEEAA
Sequence of Ribosomal protein S6 kinase alpha-6 (Q9UK32 whole entry): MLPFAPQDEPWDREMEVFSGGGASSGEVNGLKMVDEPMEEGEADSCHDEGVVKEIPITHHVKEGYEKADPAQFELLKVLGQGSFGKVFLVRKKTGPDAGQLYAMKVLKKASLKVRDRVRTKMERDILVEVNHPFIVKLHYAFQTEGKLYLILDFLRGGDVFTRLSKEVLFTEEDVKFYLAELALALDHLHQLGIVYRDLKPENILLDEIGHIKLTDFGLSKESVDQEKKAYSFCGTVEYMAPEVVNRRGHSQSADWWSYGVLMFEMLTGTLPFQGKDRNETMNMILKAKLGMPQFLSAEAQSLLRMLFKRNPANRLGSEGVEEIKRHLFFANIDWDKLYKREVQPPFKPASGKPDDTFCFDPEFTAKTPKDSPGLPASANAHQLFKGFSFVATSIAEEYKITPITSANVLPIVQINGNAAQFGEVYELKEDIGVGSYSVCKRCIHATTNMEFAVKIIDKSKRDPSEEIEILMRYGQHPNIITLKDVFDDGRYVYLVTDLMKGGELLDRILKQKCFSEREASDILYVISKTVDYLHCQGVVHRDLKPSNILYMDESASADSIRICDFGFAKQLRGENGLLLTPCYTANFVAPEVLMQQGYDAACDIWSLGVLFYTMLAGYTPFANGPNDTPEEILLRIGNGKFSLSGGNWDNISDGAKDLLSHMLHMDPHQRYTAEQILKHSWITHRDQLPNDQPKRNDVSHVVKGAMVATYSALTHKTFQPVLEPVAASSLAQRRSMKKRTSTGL
Sequence of Serine/threonine-protein kinase 24 (Homo sapiens) (Q9Y6E0 whole entry, looked up): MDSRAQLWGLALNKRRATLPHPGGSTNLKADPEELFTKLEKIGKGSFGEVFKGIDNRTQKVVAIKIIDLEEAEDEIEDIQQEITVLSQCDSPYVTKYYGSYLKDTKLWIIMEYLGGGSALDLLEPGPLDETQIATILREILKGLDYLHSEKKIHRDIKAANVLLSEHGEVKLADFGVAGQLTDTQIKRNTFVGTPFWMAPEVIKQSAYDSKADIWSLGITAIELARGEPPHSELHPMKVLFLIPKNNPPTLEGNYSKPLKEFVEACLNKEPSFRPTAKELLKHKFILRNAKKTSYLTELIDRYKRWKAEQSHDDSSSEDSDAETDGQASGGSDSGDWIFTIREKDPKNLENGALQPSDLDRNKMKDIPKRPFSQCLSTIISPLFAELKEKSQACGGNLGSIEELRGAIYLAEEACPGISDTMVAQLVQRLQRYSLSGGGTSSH

In experiment [1], `Cc1cc([C@@H](C)Nc2ccccc2C(=O)O)c2nc(N3CCOCC3)cc(=O)n2c1` [AZD-6482] gave a % of control of 100%.

Molecule `CCN(CC)CCCCNc1ncc2cc(-c3cc(OC)cc(OC)c3)c(NC(=O)NC(C)(C)C)nc2n1` gave a % of control in experiment [2] of 100%.

For the molecule `Nc1cnc(N2CCc3cc(S(=O)(=O)Nc4c(F)cc(Cl)cc4F)cc(N4CCCC4=O)c32)nc1` [TP-020n], the % of control in experiment [3] turned out to be 86%.

With `CCC(=O)N1CCN(c2ccc(-n3c(=O)ccc4cnc5ccc(-c6cnc7ccccc7c6)cc5c43)cc2C(F)(F)F)CC1`, the values for the % of control in experiment [4] and in experiment [5] were 57% and 19%, respectively.

For `COCC(=O)NC/C=C/c1ccc2ncnc(Nc3ccc(Oc4ccc(C)nc4)c(C)c3)c2c1` [CP-724714], the % of control in experiment [6] worked out at 100%.

With `N#Cc1cccc(-c2c[nH]c3ncnc(N4CCOCC4)c23)c1`, the % of inhibition in experiment [7] amounted to 39%.
